Laboratory results taken from patent US20260217711A1, “TRIAZOLOPYRIDINYL ETHER LINKED COMPOUNDS AS KINASE INHIBITORS” (Bristol-Myers Squibb Company, priority 2023, published 2026).

What follows are compounds tested on MLKL phosphorylation (pMLKL) in HT29-L23 cells (assay: MLKL Phosphorylation High-Content Assay). Settings: Homo sapiens, 6 h, necroptosis induced with human TNFα, SMAC mimetic and Z-VAD, read-out: LE pMLKL HC IC50.
Format: cell-based
Description: Following 6 h incubation at 37° C. […] MLKL phosphorylation was detected using anti-MLKL (phospho […]) antibody (Abcam #ab187091) (1:1000 dilution in Blocking Buffer [PBS supplemented with 0.1% BSA]) with ON incubation at 4° C. […] Following another three cycles of washes in PBS, the microplates were sealed, and cellular images were acquired in the Cellomics ArrayScan VTI high-content imager equipped with an X1 camera. […] The image sets were analyzed using the Compartmental Analysis Bioapplication software (Cellomics). The level of MLKL phosphorylation was quantified as […].

Compared with CC(O)(c1ccc(F)cc1)C(F)(F)CCOc1cccc(-c2ccn3nc(N)nc3c2)c1C(F)F (single isomer, unassigned) [Example 23, 5-(3-(2-amino-[1,2,4]triazolo[1,5-a]pyridin-7-yl)-2-(difluoromethyl)phenoxy)-3,3-difluoro-2-(4-fluorophenyl)pentan-2-ol], CC(O)(c1cccnc1)C(F)(F)CCOc1c(F)ccc(-c2ccn3nc(N)nc3c2)c1F (single isomer, unassigned) [Example 36, 5-(3-(2-amino-[1,2,4]triazolo[1,5-a]pyridin-7-yl)-2,6-difluorophenoxy)-3,3-difluoro-2-(pyridin-3-yl)pentan-2-ol] is 1200-fold lower in IC50: 6000 nM for the first, 5 nM for the second.

Same assay, conditions: necroptosis induced with human TNFα, SMAC mimetic and Z-VAD, 6 h, read-out: LE pMLKL HC IC50

Going from CC(O)(c1ccc(F)cc1)C(F)(F)CCOc1cc(F)cc(-c2ccn3nc(N)nc3c2)c1F (single isomer, unassigned) [Example 11, 5-(3-(2-amino-[1,2,4]triazolo[1,5-a]pyridin-7-yl)-2,5-difluorophenoxy)-3,3-difluoro-2-(4-fluorophenyl)pentan-2-ol] to CC(O)(c1ccc(F)cc1)C(F)(F)CCOc1c(Cl)ccc(-c2ccn3nc(N)nc3c2)c1F (single isomer, unassigned) [Example 51, 5-(3-(2-amino-[1,2,4]triazolo[1,5-a]pyridin-7-yl)-6-chloro-2-fluorophenoxy)-3,3-difluoro-2-(4-fluorophenyl)pentan-2-ol], the IC50 rises from 0.2 nM to 150 nM (750-fold).

Going from [2H]C([2H])(CC(F)(F)C(C)(O)c1ccc(F)cc1)Oc1cccc(-c2ccn3nc(N)nc3c2)c1F (single isomer, unassigned) [Example 12, 5-(3-(2-amino-[1,2,4]triazolo[1,5-a]pyridin-7-yl)-2-fluorophenoxy)-3,3-difluoro-2-(4-fluorophenyl)pentan-5,5-d2-2-ol] to [2H]C([2H])(CC(F)(F)C(C)(O)c1ccc(F)cc1)Oc1c(F)ccc(-c2ccn3nc(N)nc3c2)c1F (single isomer, unassigned) [Example 14, 5-(3-(2-amino-[1,2,4]triazolo[1,5-a]pyridin-7-yl)-2,6-difluorophenoxy)-3,3-difluoro-2-(4-fluorophenyl)pentan-5,5-d2-2-ol], the IC50 rises from 1 nM to 30 nM (30-fold).

Compared with CC(N)(c1ccc(F)cc1)C(F)(F)CCOc1c(F)ccc(-c2ccn3nc(N)nc3c2)c1F (single isomer, unassigned) [Example 16, 7-(3-((4-amino-3,3-difluoro-4-(4-fluorophenyl)pentyl)oxy)-2,4-difluorophenyl)-[1,2,4]triazolo[1,5-a]pyridin-2-amine], CC(O)(c1ccc(Cl)cc1)C(F)(F)CCOc1c(F)ccc(-c2ccn3nc(N)nc3c2)c1F (single isomer, unassigned) [Example 45, 5-(3-(2-amino-[1,2,4]triazolo[1,5-a]pyridin-7-yl)-2,6-difluorophenoxy)-2-(4-chlorophenyl)-3,3-difluoropentan-2-ol] is 4-fold higher in IC50: 20 nM for the first, 80 nM for the second.

Going from CC(N)(c1ccc(F)cc1)C(F)(F)CCOc1c(F)ccc(-c2ccn3nc(N)nc3c2)c1F (single isomer, unassigned) [Example 17, 7-(3-((4-amino-3,3-difluoro-4-(4-fluorophenyl)pentyl)oxy)-2,4-difluorophenyl)-[1,2,4]triazolo[1,5-a]pyridin-2-amine] to CC(O)(c1ccc(Cl)cc1)C(F)(F)CCOc1c(F)ccc(-c2ccn3nc(N)nc3c2)c1F (single isomer, unassigned) [Example 46, 5-(3-(2-amino-[1,2,4]triazolo[1,5-a]pyridin-7-yl)-2,6-difluorophenoxy)-2-(4-chlorophenyl)-3,3-difluoropentan-2-ol], the IC50 falls from 60 nM to 0.4 nM (150-fold).

Compared with COc1ccc(-c2ccn3nc(N)nc3c2)c(F)c1OCCC(F)(F)C(C)(O)c1ccc(F)cc1 (single isomer, unassigned) [Example 18, 5-(3-(2-amino-[1,2,4]triazolo[1,5-a]pyridin-7-yl)-2-fluoro-6-methoxyphenoxy)-3,3-difluoro-2-(4-fluorophenyl)pentan-2-ol], CC(O)(c1ccc(F)cc1)C(F)(F)CCOc1c(C(F)F)ccc(-c2ccn3nc(N)nc3c2)c1F (single isomer, unassigned) [Example 25, 5-(3-(2-amino-[1,2,4]triazolo[1,5-a]pyridin-7-yl)-6-(difluoromethyl)-2-fluorophenoxy)-3,3-difluoro-2-(4-fluorophenyl)pentan-2-ol] is 53-fold lower in IC50: 80 nM for the first, 1.5 nM for the second.

COc1ccc(-c2ccn3nc(N)nc3c2)c(F)c1OCCC(F)(F)C(C)(O)c1ccc(F)cc1 (single isomer, unassigned) [Example 19, 5-(3-(2-amino-[1,2,4]triazolo[1,5-a]pyridin-7-yl)-2-fluoro-6-methoxyphenoxy)-3,3-difluoro-2-(4-fluorophenyl)pentan-2-ol] and CC(O)(c1ccc(F)cc1)C(F)(F)CCOc1c(C(F)F)ccc(-c2ccn3nc(N)nc3c2)c1F (single isomer, unassigned) [Example 26, 5-(3-(2-amino-[1,2,4]triazolo[1,5-a]pyridin-7-yl)-6-(difluoromethyl)-2-fluorophenoxy)-3,3-difluoro-2-(4-fluorophenyl)pentan-2-ol] are within 1.5-fold of each other in IC50: 0.4 nM for the first, 0.3 nM for the second.

COc1cc(F)c(OCCC(F)(F)C(C)(O)c2ccc(F)cc2)c(F)c1-c1ccn2nc(N)nc2c1 (single isomer, unassigned) [Example 20, 5-(3-(2-amino-[1,2,4]triazolo[1,5-a]pyridin-7-yl)-2,6-difluoro-4-methoxyphenoxy)-3,3-difluoro-2-(4-fluorophenyl)pentan-2-ol] and CC(O)(c1ccccc1)C(F)(F)CCOc1c(F)ccc(-c2ccn3nc(N)nc3c2)c1F (single isomer, unassigned) [Example 39, 5-(3-(2-amino-[1,2,4]triazolo[1,5-a]pyridin-7-yl)-2,6-difluorophenoxy)-3,3-difluoro-2-phenylpentan-2-ol] are within 1.5-fold of each other in IC50: 110 nM for the first, 130 nM for the second.

First: COc1cc(F)c(OCCC(F)(F)C(C)(O)c2ccc(F)cc2)c(F)c1-c1ccn2nc(N)nc2c1 (single isomer, unassigned) [Example 21, 5-(3-(2-amino-[1,2,4]triazolo[1,5-a]pyridin-7-yl)-2,6-difluoro-4-methoxyphenoxy)-3,3-difluoro-2-(4-fluorophenyl)pentan-2-ol]
Second: CC(O)(c1ccc(Cl)cc1)C(F)(F)CCOc1c(Cl)ccc(-c2ccn3nc(N)nc3c2)c1F (single isomer, unassigned) [Example 43, 5-(3-(2-amino-[1,2,4]triazolo[1,5-a]pyridin-7-yl)-6-chloro-2-fluorophenoxy)-2-(4-chlorophenyl)-3,3-difluoropentan-2-ol]
The IC50 of the first is 300-fold lower: 1.1 nM for the first, 330 nM for the second.

Going from CC(O)(c1ccc(F)cc1)C(F)(F)CCOc1cccc(-c2ccn3nc(N)nc3c2)c1C(F)F (single isomer, unassigned) [Example 24, 5-(3-(2-amino-[1,2,4]triazolo[1,5-a]pyridin-7-yl)-2-(difluoromethyl)phenoxy)-3,3-difluoro-2-(4-fluorophenyl)pentan-2-ol] to CC(O)(c1ccc(Cl)cc1)C(F)(F)CCOc1cccc(-c2ccn3nc(N)nc3c2)c1F (single isomer, unassigned) [Example 47, 5-(3-(2-amino-[1,2,4]triazolo[1,5-a]pyridin-7-yl)-2-fluorophenoxy)-2-(4-chlorophenyl)-3,3-difluoropentan-2-ol], the IC50 falls from 6000 nM to 23 nM (260-fold). The second is the more potent here.

Going from CC(O)(c1ccc(F)cn1)C(F)(F)CCOc1c(Cl)ccc(-c2ccn3nc(N)nc3c2)c1F (single isomer, unassigned) [Example 32, 5-(3-(2-amino-[1,2,4]triazolo[1,5-a]pyridin-7-yl)-6-chloro-2-fluorophenoxy)-3,3-difluoro-2-(5-fluoropyridin-2-yl)pentan-2-ol] to CC(O)(c1ccc(Cl)cc1)C(F)(F)CCOc1c(Cl)ccc(-c2ccn3nc(N)nc3c2)c1F (single isomer, unassigned) [Example 44, 5-(3-(2-amino-[1,2,4]triazolo[1,5-a]pyridin-7-yl)-6-chloro-2-fluorophenoxy)-2-(4-chlorophenyl)-3,3-difluoropentan-2-ol], the IC50 falls from 30 nM to 0.6 nM (50-fold).

First: Nc1nc2cc(-c3ccc(F)c(OCCC(F)(F)C(O)c4ccc(F)cn4)c3F)ccn2n1 (single isomer, unassigned) [Example 33, 4-(3-(2-amino-[1,2,4]triazolo[1,5-a]pyridin-7-yl)-2,6-difluorophenoxy)-2,2-difluoro-1-(5-fluoropyridin-2-yl)butan-1-ol]
Second: CC(O)(c1ccccc1)C(F)(F)CCOc1c(Cl)ccc(-c2ccn3nc(N)nc3c2)c1F (single isomer, unassigned) [Example 41, 5-(3-(2-amino-[1,2,4]triazolo[1,5-a]pyridin-7-yl)-6-chloro-2-fluorophenoxy)-3,3-difluoro-2-phenylpentan-2-ol]
The IC50 of the first is 210-fold higher: 85 nM for the first, 0.4 nM for the second.

First: CC(O)(c1ccccc1)C(F)(F)CCOc1c(F)ccc(-c2ccn3nc(N)nc3c2F)c1F (single isomer, unassigned) [Example 37, 5-(3-(2-amino-8-fluoro-[1,2,4]triazolo[1,5-a]pyridin-7-yl)-2,6-difluorophenoxy)-3,3-difluoro-2-phenylpentan-2-ol]
Second: CC(O)(c1ccccc1)C(F)(F)CCOc1c(Cl)ccc(-c2ccn3nc(N)nc3c2)c1F (single isomer, unassigned) [Example 42, 5-(3-(2-amino-[1,2,4]triazolo[1,5-a]pyridin-7-yl)-6-chloro-2-fluorophenoxy)-3,3-difluoro-2-phenylpentan-2-ol]
The IC50 of the first is 6.5-fold higher: 110 nM for the first, 17 nM for the second. The second is the more potent here.

In the case of CC(O)(c1ccc(Cl)cc1)C(F)(F)CCOc1cccc(-c2ccn3nc(N)nc3c2)c1F (single isomer, unassigned) [Example 48, 5-(3-(2-amino-[1,2,4]triazolo[1,5-a]pyridin-7-yl)-2-fluorophenoxy)-2-(4-chlorophenyl)-3,3-difluoropentan-2-ol], the IC50 is reported as 0.1 nM.
